{"source": "paper PMC4894499", "about": "(Journal of pharmaceutical sciences, 2016)", "key": {"human SCH [1]": {"test_system": "human SCH", "assay": "Intracellular bile acid concentrations by LC-MS/MS in human SCH", "type": "in vitro ADME", "details": "LCA-treated SCH"}, "human SCH [2]": {"test_system": "human SCH", "details": "cited from earlier work"}, "rat SCH [3]": {"test_system": "rat SCH", "details": "cited from earlier work"}, "human SCH [4]": {"test_system": "human SCH", "details": "cited from earlier work; for Effect on total (cell + bile) and cellular accumulation of TCA: concentration-dependent"}, "human SCH [5]": {"test_system": "human SCH", "details": "fold greater; cited from earlier work"}, "rat SCH [6]": {"test_system": "rat SCH", "details": "cited from earlier work", "remark": "listed apart in the source"}, "human SCH [7]": {"test_system": "human SCH", "details": "cited from earlier work", "remark": "listed apart in the source"}, "[8]": {"assay": "Bile acid toxicity: intracellular ATP", "type": "cell-based, rat", "details": "rat, sandwich-cultured hepatocytes (SCH)"}, "rat SCH [9]": {"test_system": "rat SCH", "assay": "Bile acid toxicity: intracellular ATP", "type": "cell-based", "details": "rat SCH, 0 – 0.2 mM LCA, 6, 12, 24 hr"}, "[10]": {"assay": "Bile acid toxicity: LDH release in rat SCH", "type": "cell-based", "details": "rat, sandwich-cultured hepatocytes (SCH)"}, "rat SCH [11]": {"test_system": "rat SCH", "assay": "Bile acid toxicity: LDH release in rat SCH", "type": "cell-based", "details": "rat SCH, 0 – 0.2 mM LCA, 6, 12, 24 hr"}, "[12]": {"assay": "Bile acid toxicity: intracellular ATP", "type": "cell-based, human", "details": "human, sandwich-cultured hepatocytes (SCH)"}, "human SCH [13]": {"test_system": "human SCH", "assay": "Bile acid toxicity: intracellular ATP", "type": "cell-based", "details": "human SCH, 0 – 0.2 mM LCA, 6, 12, 24 hr"}, "human SCH [14]": {"test_system": "human SCH", "assay": "Bile acid toxicity: LDH release in human SCH", "type": "cell-based", "details": "human SCH, 0 – 0.2 mM LCA, 6, 12, 24 hr"}, "P-gp": {"test_system": "P-gp", "details": "human SCH, treatment for 3 days; cited from earlier work"}, "CYP3A4 and UGT1A1": {"test_system": "CYP3A4 and UGT1A1", "details": "human SCH; cited from earlier work"}, "human SCH [15]": {"test_system": "human SCH", "details": "cited from earlier work", "remark": "listed apart in the source"}, "rat SCH [16]": {"test_system": "rat SCH"}, "[17]": {"assay": "Bile acid toxicity: LDH release in human SCH", "type": "cell-based", "details": "human, sandwich-cultured hepatocytes (SCH)"}}}
{"compound": "C[C@H](CCC(=O)NCCS(=O)(=O)O)[C@H]1CC[C@H]2[C@@H]3CC[C@@H]4C[C@H](O)CC[C@]4(C)[C@H]3CC[C@]12C", "note": "[TLCA, taurolithocholic acid]", "values": [{"measurement": "Intracellular concentration in human SCH relative to rat SCH, fold lower", "setting": "human SCH [1]", "value": "~ 100 fold"}]}
{"compound": "Cc1c(C)c2c(c(C)c1O)CCC(C)(COc1ccc(CC3SC(=O)NC3=O)cc1)O2", "note": "(stereo not shown) [TGZ, troglitazone]", "values": [{"measurement": "Effect on canalicular efflux of TCA", "setting": "human SCH [2]", "value": "significantly reduced"}, {"measurement": "Effect on CDCA accumulation in hepatocytes", "setting": "rat SCH [3]", "value": "increased"}, {"measurement": "Effect on cellular accumulation of TCA", "setting": "rat SCH [3]", "value": "decreased"}]}
{"compound": "COc1ccccc1Oc1c(NS(=O)(=O)c2ccc(C(C)(C)C)cc2)nc(-c2ncccn2)nc1OCCO", "note": "[bosentan]", "values": [{"measurement": "Effect on BEI and apparent biliary clearance of TCA (TCA biliary excretion)", "setting": "human SCH [4]", "value": "significantly decreased"}, {"measurement": "Effect on sodium-dependent TCA uptake", "setting": "human SCH [4]", "value": "significantly inhibited"}, {"measurement": "Effect on total (cell + bile) and cellular accumulation of TCA", "setting": "human SCH [4]", "value": "significantly decreased"}, {"measurement": "Hepatocyte concentration relative to medium concentration", "setting": "human SCH [5]", "value": 20, "unit": "fold"}]}
{"compound": "Cc1cccc(C)c1OCC(=O)N[C@@H](Cc1ccccc1)[C@@H](O)C[C@H](Cc1ccccc1)NC(=O)[C@H](C(C)C)N1CCCNC1=O", "note": "[lopinavir]", "values": [{"measurement": "Effect on TCA biliary excretion (BEI and CLb, app, in vitro)", "setting": "rat SCH [6]", "value": "significantly reduced"}, {"measurement": "Effect on intracellular accumulation of TCA", "setting": "rat SCH [6]", "value": "increased"}]}
{"compound": "CC(C)c1nc(CN(C)C(=O)N[C@H](C(=O)N[C@@H](Cc2ccccc2)C[C@H](O)[C@H](Cc2ccccc2)NC(=O)OCc2cncs2)C(C)C)cs1", "note": "[ritonavir]", "values": [{"measurement": "Effect on 99mTc–mebrofenin uptake", "setting": "human SCH [7]", "value": "decreased"}, {"measurement": "Effect on BEI of 99mTc–mebrofenin", "setting": "human SCH [7]", "value": "without changing"}, {"measurement": "Effect on TCA biliary excretion (BEI and CLb, app, in vitro)", "setting": "rat SCH [6]", "value": "significantly reduced"}, {"measurement": "Effect on intracellular accumulation of TCA", "setting": "rat SCH [6]", "value": "increased"}, {"measurement": "Effect on canalicular efflux of TCA", "setting": "human SCH [2]", "value": "significantly reduced"}]}
{"compound": "COC(=O)C1=C(C)NC(C)=C(C(=O)OC(C)C)C1c1cccc2nonc12", "note": "(stereo not shown) [isradipine]", "values": [{"measurement": "Effect on canalicular efflux of TCA", "setting": "human SCH [2]", "value": "minimal effects"}]}
{"compound": "C[C@H](CCC(=O)O)[C@H]1CC[C@H]2[C@@H]3CC[C@@H]4C[C@H](O)CC[C@]4(C)[C@H]3CC[C@]12C", "note": "[LCA, lithocholic acid]", "values": [{"measurement": "Intracellular concentration in human SCH compared with rat SCH", "setting": "human SCH [1]", "value": "comparable"}, {"measurement": "CC50 at 24 h", "setting": "[8]", "value": 147, "unit": "µM"}, {"measurement": "Effect on cellular ATP", "setting": "rat SCH [9]", "value": "concentration-dependent decrease"}, {"measurement": "CC50 at 24 h", "setting": "[10]", "value": 146, "unit": "µM"}, {"measurement": "LDH leakage", "setting": "rat SCH [11]", "value": "increase"}, {"measurement": "CC50 at 24 h", "setting": "[12]", "value": 155, "unit": "µM"}, {"measurement": "Effect on cellular ATP", "setting": "human SCH [13]", "value": "delayed decrease"}, {"measurement": "LDH leakage", "setting": "human SCH [14]", "value": "minimal"}]}
{"compound": "CO[C@H]1/C=C/O[C@@]2(C)Oc3c(C)c(O)c4c(O)c(c(/C=N/N5CCN(C)CC5)c(O)c4c3C2=O)NC(=O)/C(C)=C\\C=C\\[C@H](C)[C@H](O)[C@@H](C)[C@@H](O)[C@@H](C)[C@H](OC(C)=O)[C@@H]1C", "note": "[rifampicin]", "values": [{"measurement": "Effect on BEI of digoxin", "setting": "P-gp", "value": "increase"}]}
{"compound": "CO[C@H]1/C=C/O[C@@]2(C)Oc3c(C)c(O)c4c(O)c(cc(O)c4c3C2=O)NC(=O)/C(C)=C\\C=C\\[C@H](C)[C@H](O)[C@@H](C)[C@@H](O)[C@@H](C)[C@H](OC(C)=O)[C@@H]1C", "note": "[rifamycin SV]", "values": [{"measurement": "Effect on intracellular accumulation of buprenorphine and midazolam", "setting": "CYP3A4 and UGT1A1", "value": "increased"}]}
{"compound": "CCCC1O[C@@H]2C[C@H]3[C@@H]4CCC5=CC(=O)C=C[C@]5(C)[C@H]4[C@@H](O)C[C@]3(C)[C@]2(C(=O)CO)O1", "note": "(stereo partly shown) [budesonide]", "values": [{"measurement": "Effect on canalicular efflux of TCA", "setting": "human SCH [2]", "value": "minimal effects"}]}
{"compound": "COC(c1ccccc1)(c1ccccc1)[C@H](Oc1nc(C)cc(C)n1)C(=O)O", "note": "[ambrisentan]", "values": [{"measurement": "Effect on BEI and apparent biliary clearance of TCA (TCA biliary excretion)", "setting": "human SCH [4]", "value": "minimal inhibitory effects"}, {"measurement": "Hepatocyte concentration relative to medium concentration", "setting": "human SCH [5]", "value": 2, "unit": "fold"}]}
{"compound": "CC(C)CN(C[C@@H](O)[C@H](Cc1ccccc1)NC(=O)O[C@H]1CO[C@H]2OCC[C@H]21)S(=O)(=O)c1ccc(N)cc1", "note": "[darunavir]", "values": [{"measurement": "Effect on CGamF accumulation", "setting": "human SCH [15]", "value": "potently inhibited"}]}
{"compound": "C[C@H](CCC(=O)NCCS(=O)(=O)O)[C@H]1CC[C@H]2[C@@H]3[C@H](O)C[C@@H]4C[C@H](O)CC[C@]4(C)[C@H]3CC[C@]12C", "note": "[TCDCA, taurochenodeoxycholic acid]", "values": [{"measurement": "Cellular concentration relative to CDCA, fold lower", "setting": "rat SCH [16]", "value": "~ 100 fold"}]}
{"compound": "CC#C[C@]1(O)CC[C@H]2[C@@H]3CCC4=CC(=O)CCC4=C3[C@@H](c3ccc(N(C)C)cc3)C[C@@]21C", "note": "[mifepristone]", "values": [{"measurement": "Effect on canalicular efflux of TCA", "setting": "human SCH [2]", "value": "minimal effects"}]}
{"compound": "COC(=O)N[C@H](C(=O)N[C@@H](Cc1ccccc1)[C@@H](O)CN(Cc1ccc(-c2ccccn2)cc1)NC(=O)[C@@H](NC(=O)OC)C(C)(C)C)C(C)(C)C", "note": "[atazanavir]", "values": [{"measurement": "Effect on CGamF accumulation", "setting": "human SCH [15]", "value": "potently inhibited"}]}
{"compound": "C[C@H](CCC(=O)O)[C@H]1CC[C@H]2[C@@H]3[C@H](O)C[C@@H]4C[C@H](O)CC[C@]4(C)[C@H]3CC[C@]12C", "note": "[CDCA, chenodeoxycholic acid]", "values": [{"measurement": "CC50 at 24 h", "setting": "[8]", "value": 351, "unit": "µM"}, {"measurement": "CC50 at 24 h", "setting": "[10]", "value": 243, "unit": "µM"}, {"measurement": "CC50 at 24 h", "setting": "[12]", "value": 568, "unit": "µM"}, {"measurement": "CC50 at 24 h", "setting": "[17]", "value": 972, "unit": "µM"}]}
{"compound": "CN(CCOc1ccc(CC2SC(=O)NC2=O)cc1)c1ccccn1", "note": "(stereo not shown) [rosiglitazone]", "values": [{"measurement": "Effect on canalicular efflux of TCA", "setting": "human SCH [2]", "value": "significantly reduced"}]}
{"compound": "CCCNS(=O)(=O)Nc1ncnc(OCCOc2ncc(Br)cn2)c1-c1ccc(Br)cc1", "note": "[macitentan]", "values": [{"measurement": "Effect on BEI and apparent biliary clearance of TCA (TCA biliary excretion)", "setting": "human SCH [4]", "value": "significantly decreased"}, {"measurement": "Effect on total (cell + bile) and cellular accumulation of TCA", "setting": "human SCH [4]", "value": "significantly decreased"}, {"measurement": "Hepatocyte concentration relative to medium concentration", "setting": "human SCH [5]", "value": "about 100 fold"}]}
{"compound": "C[C@H](CCC(=O)NCC(=O)O)[C@H]1CC[C@H]2[C@@H]3CC[C@@H]4C[C@H](O)CC[C@]4(C)[C@H]3CC[C@]12C", "note": "[GLCA, glycolithocholic acid]", "values": [{"measurement": "Intracellular concentration in human SCH compared with rat SCH", "setting": "human SCH [1]", "value": "comparable"}]}
{"compound": "CC(C)(C)NC(=O)[C@@H]1CN(Cc2cccnc2)CCN1C[C@@H](O)C[C@@H](Cc1ccccc1)C(=O)N[C@H]1c2ccccc2C[C@H]1O", "note": "[indivanir]", "values": [{"measurement": "Effect on CGamF accumulation", "setting": "human SCH [15]", "value": "potently inhibited"}]}
{"compound": "Cc1cc2c(cc1CC(=O)c1sccc1S(=O)(=O)Nc1onc(C)c1Cl)OCO2", "note": "[sitaxsentan]", "values": [{"measurement": "Effect on sodium-dependent TCA uptake", "setting": "human SCH [4]", "value": "significantly inhibited"}, {"measurement": "Hepatocyte concentration relative to medium concentration", "setting": "human SCH [5]", "value": 40, "unit": "fold"}]}
{"compound": "COc1ccc(Cl)cc1C(=O)NCCc1ccc(S(=O)(=O)NC(=O)NC2CCCCC2)cc1", "note": "[glyburide]", "values": [{"measurement": "Effect on canalicular efflux of TCA", "setting": "human SCH [2]", "value": "minimal effects"}]}
